Data taken from DBAASP.
≈ marks a conversion by molar mass, not a printed value. Values belong to the compound of their own block, whether it stands above or below them.

Legend:
Assay in all cases: ≥ marks a high value that may be exact or a test limit, other limits are often not marked, values filed in µg/mL are converted to µM
[1] = test system: Escherichia coli NCTC 10418
[2] = test system: Pseudomonas aeruginosa ATCC 27853
[3] = test system: Staphylococcus aureus NCTC 10788
[4] = test system: Candida albicans NCYC 1467
[5] = test system: Enterococcus faecalis NCTC 12697
[6] = test system: Staphylococcus aureus NCTC 12493
[7] = test system: Klebsiella pneumoniae ATCC 43816
[8] = test system: Staphylococcus aureus ATCC 29737
[9] = test system: Candida albicans ATCC 10231
[10] = test system: Pseudomonas aeruginosa ATCC 9027
[11] = test system: Escherichia coli ATCC 25922
[12] = test system: Staphylococcus epidermidis ATCC 12228
[13] = test system: Staphylococcus aureus USA 300
[14] = test system: Staphylococcus aureus USA 100
[15] = test system: Candida albicans ATCC 90028
[16] = test system: Bacillus subtilis ATCC 23857
[17] = test system: Klebsiella aerogenes ATCC 13048
[18] = test system: Cryptococcus neoformans ATCC 208821
[19] = test system: Staphylococcus aureus ATCC 43300
[20] = test system: Klebsiella pneumoniae ATCC 700603
[21] = test system: Acinetobacter baumannii ATCC 19606
[22] = test system: Escherichia coli BW25113
[23] = test system: Bacillus cereus AS1.126
[24] = test system: Enterococcus faecalis CGMCC 1.595
[25] = test system: Staphylococcus aureus AS1.72
[26] = test system: Lactococcus lactis AS1.1690
[27] = test system: Enterococcus faecium CGMCC 1.2334
[28] = test system: Pseudomonas aeruginosa CGMCC 1.860
[29] = test system: Escherichia coli AS1.349

MIC [1]: ≥ 512 µM
MIC [2]: > 512 µM
MIC [3]: 2 µM (≈ 4.19 µg/mL)
MIC [4]: ≥ 32 µM
MIC [5]: ≥ 32 µM
MIC [6]: ≥ 128 µM
MIC [7]: ≥ 512 µM
Compound: CC[C@H](C)[C@H](NC(=O)[C@H](C)NC(=O)[C@H](CO)NC(=O)[C@@H](NC(=O)[C@@H](NC(=O)[C@H](CCCCN)NC(=O)[C@@H]1CCCN1C(=O)[C@@H](NC(=O)[C@H](CC(C)C)NC(=O)[C@H](CO)NC(=O)[C@H](CC(C)C)NC(=O)[C@@H](N)Cc1ccccc1)[C@@H](C)CC)[C@@H](C)CC)[C@@H](C)CC)C(=O)N[C@@H](CO)C(=O)N[C@@H](C)C(=O)N[C@@H](CC(C)C)C(=O)N[C@H](C(=O)N[C@@H](CC(N)=O)C(=O)N[C@@H](Cc1cnc[nH]1)C(=O)N[C@@H](Cc1ccccc1)C(N)=O)[C@@H](C)CC [FLSLIPKIISAISALINHF]

MIC [8]: 20.8 µM (≈ 31.3 µg/mL)
MIC [9]: 82.9 µM (≈ 125 µg/mL)
MIC [10]: 41.4 µM (≈ 62.5 µg/mL)
MIC [11]: 10.3 µM (≈ 15.6 µg/mL)
MIC [12]: 1.33 µM (≈ 2 µg/mL)
Compound: CC[C@H](C)[C@H](N)C(=O)N[C@@H](CCCN=C(N)N)C(=O)N[C@H](C(=O)N[C@@H](CCCCN)C(=O)N[C@H](C(=O)N[C@@H](CCCN=C(N)N)C(=O)N[C@H](C(=O)N[C@@H](CCCCN)C(=O)N[C@H](C(=O)N[C@@H](CCCN=C(N)N)C(=O)N[C@H](C(=O)N[C@@H](CCCCN)C(N)=O)C(C)C)[C@@H](C)CC)C(C)C)[C@@H](C)CC)C(C)C [IRVKIRVKIRVK]

MIC [16]: 4.07 µM (≈ 7.93 µg/mL)
MIC [17]: 12.8 µM (≈ 25 µg/mL)
MIC [8]: 25.7 µM (≈ 50 µg/mL)
MIC [9]: > 25.7 µM
MIC [10]: 3.23 µM (≈ 6.3 µg/mL)
MIC [11]: 6.41 µM (≈ 12.5 µg/mL)
Compound: CC(C)C[C@H](NC(=O)[C@H](CC(C)C)NC(=O)[C@H](CCCCN)NC(=O)[C@H](CCCCN)NC(=O)[C@H](CC(C)C)NC(=O)[C@H](CC(C)C)NC(=O)[C@H](CCCCN)NC(=O)[C@H](CCCCN)NC(=O)[C@H](CC(C)C)NC(=O)[C@H](CC(C)C)NC(=O)[C@H](CCCCN)NC(=O)[C@H](CCCCN)NC(=O)[C@H](CC(C)C)NC(=O)[C@@H](N)CC(C)C)C(=O)N[C@@H](CCCCN)C(=O)N[C@@H](CCCCN)C(N)=O [LLKKLLKKLLKKLLKK]

MIC [18]: 22.7 µM (≈ 32 µg/mL)
MIC [2]: > 22.7 µM
MIC [19]: > 22.7 µM
MIC [15]: 22.7 µM (≈ 32 µg/mL)
MIC [20]: > 22.7 µM
MIC [11]: > 22.7 µM
MIC [21]: > 22.7 µM
Compound: NC(=O)C[C@H](N)C(=O)N[C@@H](Cc1cnc[nH]1)C(=O)N[C@@H](Cc1cnc[nH]1)C(=O)N[C@@H](CCCN=C(N)N)C(=O)N[C@@H](CCCN=C(N)N)C(=O)N[C@@H](Cc1cnc[nH]1)C(=O)N[C@@H](Cc1cnc[nH]1)C(=O)N[C@@H](CCCN=C(N)N)C(=O)N[C@@H](CS)C(=O)N[C@@H](CCCN=C(N)N)C(=O)O [NHHRRHHRCR]

MIC [23]: 3.13 µM (≈ 7.96 µg/mL)
MIC [24]: 1.56 µM (≈ 3.97 µg/mL)
MIC [25]: 3.13 µM (≈ 7.96 µg/mL)
MIC [26]: 3.13 µM (≈ 7.96 µg/mL)
MIC [27]: 3.13 µM (≈ 7.96 µg/mL)
MIC [28]: 1.56 µM (≈ 3.97 µg/mL)
MIC [29]: 6.25 µM (≈ 15.9 µg/mL)
Compound: CC(C)C[C@H](NC(=O)[C@H](CCCCN)NC(=O)[C@H](CCCN=C(N)N)NC(=O)[C@H](Cc1cnc[nH]1)NC(=O)[C@H](C)NC(=O)[C@H](CCCN=C(N)N)NC(=O)[C@H](Cc1cnc[nH]1)NC(=O)[C@H](Cc1c[nH]c2ccccc12)NC(=O)[C@H](Cc1ccccc1)NC(=O)[C@H](CCCN=C(N)N)NC(=O)[C@H](CCCN=C(N)N)NC(=O)[C@H](Cc1c[nH]c2ccccc12)NC(=O)[C@H](Cc1cnc[nH]1)NC(=O)[C@H](CCCN=C(N)N)NC(=O)[C@H](Cc1c[nH]c2ccccc12)NC(=O)[C@@H](NC(=O)[C@H](CCCCN)NC(=O)[C@@H](N)CO)C(C)C)C(=O)O [SKVWRHWRRFWHRAHRKL]

MIC [23]: 3.13 µM (≈ 5.39 µg/mL)
MIC [24]: 3.13 µM (≈ 5.39 µg/mL)
MIC [25]: 3.13 µM (≈ 5.39 µg/mL)
MIC [26]: 6.25 µM (≈ 10.8 µg/mL)
MIC [27]: 3.13 µM (≈ 5.39 µg/mL)
MIC [28]: 3.13 µM (≈ 5.39 µg/mL)
MIC [29]: 6.25 µM (≈ 10.8 µg/mL)
Compound: CC(C)[C@H](N)C(=O)N[C@@H](Cc1c[nH]c2ccccc12)C(=O)N[C@@H](CCCN=C(N)N)C(=O)N[C@@H](Cc1cnc[nH]1)C(=O)N[C@@H](Cc1c[nH]c2ccccc12)C(=O)N[C@@H](CCCN=C(N)N)C(=O)N[C@@H](CCCN=C(N)N)C(=O)N[C@@H](Cc1ccccc1)C(=O)N[C@@H](Cc1c[nH]c2ccccc12)C(=O)N[C@@H](Cc1cnc[nH]1)C(=O)N[C@@H](CCCN=C(N)N)C(=O)O [VWRHWRRFWHR]

Continued, compound first:

Compound: CC(C)C[C@H](NC(=O)[C@H](CCC(N)=O)NC(=O)[C@H](CCC(N)=O)NC(=O)[C@H](C)NC(=O)CNC(=O)[C@H](C)NC(=O)[C@H](CCCCN)NC(=O)CNC(=O)[C@@H](NC(=O)[C@H](CCC(N)=O)NC(=O)[C@H](CCCCN)NC(=O)[C@H](CCCN=C(N)N)NC(=O)[C@H](CC(C)C)NC(=O)[C@H](Cc1ccc(O)cc1)NC(=O)[C@H](CCCCN)NC(=O)[C@H](C)NC(=O)CNC(=O)[C@H](C)NC(=O)[C@H](CCCCN)NC(=O)[C@H](Cc1ccccc1)NC(=O)[C@H](CC(C)C)NC(=O)[C@H](CO)NC(=O)[C@H](CO)NC(=O)[C@H](Cc1ccccc1)NC(=O)CN)C(C)C)C(N)=O [GFSSLFKAGAKYLRKQVGKAGAQQL]
MIC [1]: 8 µM (≈ 21.2 µg/mL)
MIC [2]: 16 µM (≈ 42.5 µg/mL)
MIC [3]: 16 µM (≈ 42.5 µg/mL)
MIC [4]: ≥ 64 µM
MIC [5]: 16 µM (≈ 42.5 µg/mL)
MIC [6]: ≥ 64 µM
MIC [7]: ≥ 128 µM

Compound: CC(=O)N[C@@H](CCCCN)C(=O)N1CCC[C@H]1C(=O)N[C@H](C(N)=O)C(C)C [KPV]
MIC [13]: ≥ 100 µM
MIC [10]: > 100 µM
MIC [14]: ≥ 100 µM
MIC [15]: ≥ 100 µM

Compound: CC[C@H](C)[C@H](NC(=O)[C@@H]1CCCN1C(=O)[C@@H]1CCCN1C(=O)[C@H](CCCN=C(N)N)NC(=O)[C@H](Cc1ccccc1)NC(=O)[C@@H](N)CCCN=C(N)N)C(=O)N[C@@H](CCCN=C(N)N)C(=O)N[C@@H](CCCN=C(N)N)C(=O)N1CCC[C@H]1C(=O)N1CCC[C@H]1C(=O)N[C@H](C(=O)N[C@@H](CCCN=C(N)N)C(=O)N1CCC[C@H]1C(=O)N1CCC[C@H]1C(=O)N[C@@H](Cc1ccccc1)C(=O)N[C@@H](Cc1ccc(O)cc1)C(=O)N[C@@H](Cc1c[nH]c2ccccc12)C(=O)O)[C@@H](C)CC [RFRPPIRRPPIRPPFYW]
MIC [22]: 16 µM (≈ 36 µg/mL)

Compound: C[C@H](NC(=O)[C@H](CCCN=C(N)N)NC(=O)[C@H](Cc1cnc[nH]1)NC(=O)[C@H](Cc1c[nH]c2ccccc12)NC(=O)[C@H](Cc1ccccc1)NC(=O)[C@H](CCCN=C(N)N)NC(=O)[C@@H](N)CCCN=C(N)N)C(=O)N[C@@H](Cc1cnc[nH]1)C(=O)O [RRFWHRAH]
MIC [23]: ≥ 100 µM
MIC [24]: ≥ 100 µM
MIC [25]: ≥ 100 µM
MIC [26]: ≥ 100 µM
MIC [27]: ≥ 100 µM
MIC [28]: ≥ 100 µM
MIC [29]: ≥ 100 µM

Compound: NC(=O)[C@H](Cc1c[nH]c2ccccc12)NC(=O)[C@H](Cc1c[nH]c2ccccc12)NC(=O)[C@H](Cc1c[nH]c2ccccc12)NC(=O)[C@@H](N)Cc1c[nH]c2ccccc12 [WWWW]
MIC [14]: ≥ 100 µM
